This note sets out measurements from the supplement of paper PMC10307832.

Common to all, as to experiment: relative viability (nuclei count vs DMSO), 5 days (fraction); higher = more cells survive
Compound in the assay “Gemcitabine + Tozasertib”: Nc1ccn([C@@H]2O[C@H](CO)[C@@H](O)C2(F)F)c(=O)n1 [Gemcitabine] + Cc1cc(Nc2cc(N3CCN(C)CC3)nc(Sc3ccc(NC(=O)C4CC4)cc3)n2)n[nH]1 [Tozasertib] (partner 0.1 µM)
The gist of the method: (§1)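 Nuclei were stained with Hoechst during a one-step fixation (final 0.05% Triton X-100, 1% formaldehyde, 1 ug/ml Hoechst) carried out 5 days after dosing, then counted on 4× images. The cells, lung cancer lines in 1536-well plates, had been dosed by pin tool the day after seeding with one drug alone or a fixed anchor-drug dose plus five library-drug doses (not always all listed) in √10 steps. Relative viability is the nuclei count in treated wells divided by that in vehicle wells, and each value is the median of duplicate plates.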

Compound in the assay “Gemcitabine + OSI-027”: Nc1ccn([C@@H]2O[C@H](CO)[C@@H](O)C2(F)F)c(=O)n1 [Gemcitabine] + COc1cccc2cc(-c3nc([C@H]4CC[C@H](C(=O)O)CC4)n4ncnc(N)c34)[nH]c12 [OSI-027] (partner 0.5 µM)
The gist of the method:
as §1

Compound in the assay “Gemcitabine + Linsitinib”: Nc1ccn([C@@H]2O[C@H](CO)[C@@H](O)C2(F)F)c(=O)n1 [Gemcitabine] + C[C@]1(O)C[C@@H](c2nc(-c3ccc4ccc(-c5ccccc5)nc4c3)c3c(N)nccn32)C1 [Linsitinib] (partner 1 µM)
The procedure, abridged:
as §1

Compound in the assay “Gemcitabine + Crizotinib”: Nc1ccn([C@@H]2O[C@H](CO)[C@@H](O)C2(F)F)c(=O)n1 [Gemcitabine] + C[C@@H](Oc1cc(-c2cnn(C3CCNCC3)c2)cnc1N)c1c(Cl)ccc(F)c1Cl [Crizotinib] (partner 1 µM)
The gist of the method:
as §1

NCI-H650: the relative viability turned out to be 0.676 with Gemcitabine + Tozasertib (first compound 0.001 µM); 0.384 with Gemcitabine + Tozasertib (first compound 0.003162 µM); 0.193 in the assay with Gemcitabine + Tozasertib (first compound 0.01 µM); 0.143 in the assay with Gemcitabine + Tozasertib (first compound 0.03162 µM); 0.15 in the assay with Gemcitabine + Tozasertib (first compound 0.1 µM); 0.46 with Gemcitabine + OSI-027 (first compound 0.001 µM). The relative viability with Gemcitabine + OSI-027 (first compound 0.003162 µM) is 0.24; in the assay with Gemcitabine + OSI-027 (first compound 0.01 µM), 0.194; with Gemcitabine + OSI-027 (first compound 0.03162 µM) it was 0.153; in the assay with Gemcitabine + OSI-027 (first compound 0.1 µM), 0.169; with Gemcitabine + Linsitinib (first compound 0.001 µM) it was 0.634; in the assay with Gemcitabine + Linsitinib (first compound 0.003162 µM), 0.282. The relative viability in the assay with Gemcitabine + Linsitinib (first compound 0.01 µM) came out at 0.21; in the assay with Gemcitabine + Linsitinib (first compound 0.03162 µM), 0.153; in the assay with Gemcitabine + Linsitinib (first compound 0.1 µM) it was 0.147; with Gemcitabine + Crizotinib (first compound 0.001 µM) it was 0.578; in the assay with Gemcitabine + Crizotinib (first compound 0.003162 µM) it was 0.322; with Gemcitabine + Crizotinib (first compound 0.01 µM), 0.176. Further, the relative viability was 0.177 in the assay with Gemcitabine + Crizotinib (first compound 0.03162 µM) and 0.167 with Gemcitabine + Crizotinib (first compound 0.1 µM).
As for NCI-H647, the relative viability in the assay with Gemcitabine + Tozasertib (first compound 0.001 µM) was found to be 0.395; in the assay with Gemcitabine + Tozasertib (first compound 0.003162 µM), 0.098; in the assay with Gemcitabine + Tozasertib (first compound 0.01 µM), 0.0474; in the assay with Gemcitabine + Tozasertib (first compound 0.03162 µM) it was 0.0387; with Gemcitabine + Tozasertib (first compound 0.1 µM), 0.0371; with Gemcitabine + OSI-027 (first compound 0.001 µM) it was 0.408. The relative viability is 0.128 with Gemcitabine + OSI-027 (first compound 0.003162 µM); 0.0727 in the assay with Gemcitabine + OSI-027 (first compound 0.01 µM); 0.0897 with Gemcitabine + OSI-027 (first compound 0.03162 µM); 0.0704 in the assay with Gemcitabine + OSI-027 (first compound 0.1 µM); 1.27 with Gemcitabine + Linsitinib (first compound 0.001 µM); 0.382 in the assay with Gemcitabine + Linsitinib (first compound 0.003162 µM). The relative viability with Gemcitabine + Linsitinib (first compound 0.01 µM) was found to be 0.0832; in the assay with Gemcitabine + Linsitinib (first compound 0.03162 µM) it was 0.0779; in the assay with Gemcitabine + Linsitinib (first compound 0.1 µM) it was 0.0445; in the assay with Gemcitabine + Crizotinib (first compound 0.001 µM), 1.09; in the assay with Gemcitabine + Crizotinib (first compound 0.003162 µM), 0.195; with Gemcitabine + Crizotinib (first compound 0.01 µM), 0.0721. Further, the relative viability turned out to be 0.0642 with Gemcitabine + Crizotinib (first compound 0.03162 µM) and 0.0615 in the assay with Gemcitabine + Crizotinib (first compound 0.1 µM).
For 201T, the relative viability with Gemcitabine + Tozasertib (first compound 0.001 µM) was 0.981; with Gemcitabine + Tozasertib (first compound 0.003162 µM) it was 0.98; with Gemcitabine + Tozasertib (first compound 0.01 µM) it was 0.896; in the assay with Gemcitabine + Tozasertib (first compound 0.03162 µM), 0.425; with Gemcitabine + Tozasertib (first compound 0.1 µM), 0.298; with Gemcitabine + OSI-027 (first compound 0.001 µM), 0.653. Further, the relative viability with Gemcitabine + OSI-027 (first compound 0.003162 µM) amounted to 0.747; with Gemcitabine + OSI-027 (first compound 0.01 µM) it was 0.122; with Gemcitabine + OSI-027 (first compound 0.03162 µM), 0.146; with Gemcitabine + OSI-027 (first compound 0.1 µM), 0.114; with Gemcitabine + Linsitinib (first compound 0.001 µM) it was 1.07; with Gemcitabine + Linsitinib (first compound 0.003162 µM), 1.06. Moreover, the relative viability came to 1.06 in the assay with Gemcitabine + Linsitinib (first compound 0.01 µM); 0.663 in the assay with Gemcitabine + Linsitinib (first compound 0.03162 µM); 0.339 with Gemcitabine + Linsitinib (first compound 0.1 µM); 1.04 with Gemcitabine + Crizotinib (first compound 0.001 µM); 1.01 with Gemcitabine + Crizotinib (first compound 0.003162 µM); 0.975 with Gemcitabine + Crizotinib (first compound 0.01 µM). In addition, the relative viability was determined as 0.464 in the assay with Gemcitabine + Crizotinib (first compound 0.03162 µM) and 0.329 with Gemcitabine + Crizotinib (first compound 0.1 µM).
Regarding NCI-H1650, the relative viability in the assay with Gemcitabine + Tozasertib (first compound 0.001 µM) came out at 0.507; with Gemcitabine + Tozasertib (first compound 0.003162 µM), 0.348; in the assay with Gemcitabine + Tozasertib (first compound 0.01 µM), 0.273; with Gemcitabine + Tozasertib (first compound 0.03162 µM), 0.119; with Gemcitabine + Tozasertib (first compound 0.1 µM), 0.113; with Gemcitabine + OSI-027 (first compound 0.001 µM), 0.501. Moreover, the relative viability is 0.184 with Gemcitabine + OSI-027 (first compound 0.003162 µM); 0.114 with Gemcitabine + OSI-027 (first compound 0.01 µM); 0.137 in the assay with Gemcitabine + OSI-027 (first compound 0.03162 µM); 0.134 with Gemcitabine + OSI-027 (first compound 0.1 µM); 0.974 with Gemcitabine + Crizotinib (first compound 0.001 µM); 0.875 with Gemcitabine + Crizotinib (first compound 0.003162 µM). Besides, the results for the relative viability with Gemcitabine + Crizotinib (first compound 0.01 µM), with Gemcitabine + Crizotinib (first compound 0.03162 µM) and with Gemcitabine + Crizotinib (first compound 0.1 µM) were 0.638, 0.158 and 0.145, respectively.
For NCI-H2170, the relative viability turned out to be 0.824 in the assay with Gemcitabine + Tozasertib (first compound 0.001 µM); 0.735 with Gemcitabine + Tozasertib (first compound 0.003162 µM); 0.469 with Gemcitabine + Tozasertib (first compound 0.01 µM); 0.154 with Gemcitabine + Tozasertib (first compound 0.03162 µM); 0.134 with Gemcitabine + Tozasertib (first compound 0.1 µM); 0.714 with Gemcitabine + OSI-027 (first compound 0.001 µM). Further, the relative viability was 0.662 in the assay with Gemcitabine + OSI-027 (first compound 0.003162 µM); 0.632 with Gemcitabine + OSI-027 (first compound 0.01 µM); 0.292 with Gemcitabine + OSI-027 (first compound 0.03162 µM); 0.136 in the assay with Gemcitabine + OSI-027 (first compound 0.1 µM); 1.39 in the assay with Gemcitabine + Crizotinib (first compound 0.001 µM); 1.23 with Gemcitabine + Crizotinib (first compound 0.003162 µM). Besides, the relative viability with Gemcitabine + Crizotinib (first compound 0.01 µM) is 0.615; with Gemcitabine + Crizotinib (first compound 0.03162 µM), 0.161; with Gemcitabine + Crizotinib (first compound 0.1 µM) it was 0.155.
For NCI-H1563, the relative viability with Gemcitabine + OSI-027 (first compound 0.001 µM) worked out at 0.761; with Gemcitabine + OSI-027 (first compound 0.003162 µM), 0.726; with Gemcitabine + OSI-027 (first compound 0.01 µM) it was 0.631; with Gemcitabine + OSI-027 (first compound 0.03162 µM) it was 0.5; with Gemcitabine + OSI-027 (first compound 0.1 µM), 0.545; with Gemcitabine + Linsitinib (first compound 0.001 µM) it was 1.5. Moreover, the relative viability with Gemcitabine + Linsitinib (first compound 0.003162 µM) is 1.12; with Gemcitabine + Linsitinib (first compound 0.01 µM) it was 1.08; with Gemcitabine + Linsitinib (first compound 0.03162 µM), 0.734; in the assay with Gemcitabine + Linsitinib (first compound 0.1 µM), 0.531; with Gemcitabine + Crizotinib (first compound 0.001 µM), 0.861; in the assay with Gemcitabine + Crizotinib (first compound 0.003162 µM), 0.993. The figures for the relative viability in the assay with Gemcitabine + Crizotinib (first compound 0.01 µM), with Gemcitabine + Crizotinib (first compound 0.03162 µM) and in the assay with Gemcitabine + Crizotinib (first compound 0.1 µM) were 0.917, 0.635 and 0.411, respectively.
For the cell line EBC-1, the relative viability with Gemcitabine + Linsitinib (first compound 0.001 µM) stood at 0.777; with Gemcitabine + Linsitinib (first compound 0.003162 µM), 0.369; with Gemcitabine + Linsitinib (first compound 0.01 µM) it was 0.142; with Gemcitabine + Linsitinib (first compound 0.03162 µM), 0.0966; with Gemcitabine + Linsitinib (first compound 0.1 µM) it was 0.115; with Gemcitabine + Crizotinib (first compound 0.001 µM), 0.192. Further, the relative viability with Gemcitabine + Crizotinib (first compound 0.003162 µM) stood at 0.166; with Gemcitabine + Crizotinib (first compound 0.01 µM), 0.161; with Gemcitabine + Crizotinib (first compound 0.03162 µM), 0.134; with Gemcitabine + Crizotinib (first compound 0.1 µM) it was 0.159.
As for Calu-6, the relative viability in the assay with Gemcitabine + Linsitinib (first compound 0.001 µM) is 0.948; in the assay with Gemcitabine + Linsitinib (first compound 0.003162 µM) it was 0.618; with Gemcitabine + Linsitinib (first compound 0.01 µM), 0.234; with Gemcitabine + Linsitinib (first compound 0.03162 µM), 0.129; with Gemcitabine + Linsitinib (first compound 0.1 µM), 0.0919; in the assay with Gemcitabine + Crizotinib (first compound 0.001 µM), 0.784. Further, the relative viability came to 0.585 with Gemcitabine + Crizotinib (first compound 0.003162 µM), 0.279 with Gemcitabine + Crizotinib (first compound 0.01 µM), 0.145 with Gemcitabine + Crizotinib (first compound 0.03162 µM) and 0.123 in the assay with Gemcitabine + Crizotinib (first compound 0.1 µM).
